According to patent US11155879B2, “Method of predicting effects of CDC7 inhibitor” (TAKEDA PHARMACEUTICAL COMPANY LIMITED, priority 2017, dated 2021):

Test system: pancreatic patient-derived tumor xenografts (PDX models)
Test: In vivo antitumor activity in female BALB/c nude mice bearing patient-derived tumor xenografts (PDXs)
Conditions: 60 mg/kg, Bid, po, 21 days, 3 days on 4 days off
Excerpt: In Vivo Antitumor Activity of Compound 1 Hemihydrate in Female BALB/c Nude Mice Bearing Patient-Derived Tumor Xenografts (PDXs)
Tumor fragments from seed mice inoculated with selected PDX tumors were harvested and used for inoculation into BALB/c nude mice. Each mouse was inoculated subcutaneously at the right flank with one tumor fragment (2-3 mm in diameter). The treatments were started when mean tumor size reached approximately 200-250 mm^3. For each model, 6 tumor bearing mice were randomized into 2 groups. Mice were dosed orally with either vehicle (0.5% w:v methyl cellulose) or Compound 1 hemihydrate Form A crystal (60 mg/kg, Bid, po, 21 days, 3 days on 4 days off).
The % tumor growth inhibition (TGI) was taken as endpoints to determine when the tumor growth can be delayed or mice can be cured. Tumor sizes were measured twice weekly in two dimensions using a caliper, and the volume is expressed in mm^3 using the formula: V=0.5a×b^2,
where a and b are the long and short diameters of the tumor, respectively. The % TGI was calculated using the following formula: % TGI=(1−(Ti-T0)/(Vi-V0))*100 […]

Cc1n[nH]cc1-c1cc2nc([C@@H]3CC4CCN3CC4)[nH]c(=O)c2s1 [Compound 1 hemihydrate, 2-[(2S)-1-azabicyclo[2.2.2]oct-2-yl]-6-(3-methyl-1H-pyrazol-4-yl)thieno[3,2-d]pyrimidin-4(3H)-one]
tumor growth inhibition (% TGI) (22 out of 25 pancreatic PDX models, vs vehicle (0.5% methyl cellulose)): > 60% | sensitivity of KRAS-mutant pancreatic tumors compared to KRAS-wild type ones (correlative study on % TGI, FIG. 1) (pancreatic PDX models, Student's t-test KRAS-mutant vs KRAS-wild): more sensitive
